From the supplement of paper PMC10307832

How the values were obtained:
Experiment in all cases: relative viability (nuclei count vs DMSO), 5 days (fraction); higher = more cells survive
NCI-H1734 = tested on: NCI-H1734
Summary of the method: (§1)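 Values are medians from duplicate plates. Each reflects relative viability, defined as the nuclei count of treated wells over that of vehicle wells. Lung cancer cell lines in 1536-well plates were pin-tool dosed one day after seeding with one drug alone or with a fixed anchor-drug dose plus five library-drug doses (not always all listed) in √10 steps, then fixed, stained and imaged at 4× after 5 days.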

LCLC-97TM1 = tested on: LCLC-97TM1
Summary of the method: as §1

NCI-H2405 = tested on: NCI-H2405
Summary of the method: as §1

NCI-H2228 = tested on: NCI-H2228
Summary of the method: as §1

HCC-827 = tested on: HCC-827
Summary of the method: as §1

PC-14 = tested on: PC-14
Summary of the method: as §1

NCI-H661 = tested on: NCI-H661
Summary of the method: as §1

HCC-15 = tested on: HCC-15
Summary of the method: as §1

NCI-H520 = tested on: NCI-H520
Summary of the method: as §1

NCI-H1650 = tested on: NCI-H1650
Summary of the method: as §1

NCI-H1755 = tested on: NCI-H1755
Summary of the method: as §1

Molecule `Cc1sc2c(c1C)C(c1ccc(Cl)cc1)=N[C@@H](CC(=O)OC(C)(C)C)c1nnc(C)n1-2` [JQ1] + C[C@@H](Oc1cc(-c2cnn(C3CCNCC3)c2)cnc1N)c1c(Cl)ccc(F)c1Cl [Crizotinib] (partner 1 µM) has a relative viability (NCI-H1734; first compound 0.04 µM) of 0.696, a relative viability (NCI-H1734; first compound 0.1265 µM) of 0.659 and a relative viability (NCI-H1734; first compound 0.4 µM) of 0.569. For the same molecule, the relative viability (NCI-H1734; first compound 1.265 µM) was 0.449, the relative viability (NCI-H1734; first compound 4 µM) was 0.331 and the relative viability (LCLC-97TM1; first compound 0.1265 µM) was 0.285. It also gave a relative viability (LCLC-97TM1; first compound 0.4 µM) of 0.19, a relative viability (LCLC-97TM1; first compound 1.265 µM) of 0.118 and a relative viability (LCLC-97TM1; first compound 4 µM) of 0.117. The relative viability (NCI-H2405; first compound 0.04 µM) was 0.829, the relative viability (NCI-H2405; first compound 0.1265 µM) was 0.711 and the relative viability (NCI-H2405; first compound 0.4 µM) was 0.749. For the same molecule, the relative viability (NCI-H2405; first compound 1.265 µM) was 0.555, the relative viability (NCI-H2405; first compound 4 µM) was 0.395 and the relative viability (NCI-H2228; first compound 0.04 µM) was 0.455. The relative viability (NCI-H2228; first compound 0.1265 µM) was 0.417, the relative viability (NCI-H2228; first compound 0.4 µM) was 0.38 and the relative viability (NCI-H2228; first compound 1.265 µM) was 0.306. It also gave a relative viability (NCI-H2228; first compound 4 µM) of 0.317, a relative viability (HCC-827; first compound 0.04 µM) of 1.01 and a relative viability (HCC-827; first compound 0.4 µM) of 0.663. The relative viability (HCC-827; first compound 1.265 µM) was 0.672, the relative viability (HCC-827; first compound 4 µM) was 0.668 and the relative viability (PC-14; first compound 0.04 µM) was 0.907. It also gave a relative viability (PC-14; first compound 0.1265 µM) of 0.781, a relative viability (PC-14; first compound 0.4 µM) of 0.776 and a relative viability (PC-14; first compound 1.265 µM) of 0.611. The relative viability (PC-14; first compound 4 µM) was 0.426, the relative viability (NCI-H661; first compound 0.04 µM) was 1 and the relative viability (NCI-H661; first compound 0.1265 µM) was 1.08. For the same molecule, the relative viability (NCI-H661; first compound 1.265 µM) was 1.05, the relative viability (NCI-H661; first compound 4 µM) was 0.776 and the relative viability (HCC-15; first compound 0.04 µM) was 0.762. For the same molecule, the relative viability (HCC-15; first compound 0.4 µM) was 0.75, the relative viability (HCC-15; first compound 1.265 µM) was 0.544 and the relative viability (HCC-15; first compound 4 µM) was 0.441. For the same molecule, the relative viability (NCI-H520; first compound 0.04 µM) was 0.97, the relative viability (NCI-H520; first compound 0.1265 µM) was 0.997 and the relative viability (NCI-H520; first compound 0.4 µM) was 0.578. The relative viability (NCI-H520; first compound 1.265 µM) was 0.368, the relative viability (NCI-H520; first compound 4 µM) was 0.166 and the relative viability (NCI-H1650; first compound 0.04 µM) was 0.948. For the same molecule, the relative viability (NCI-H1650; first compound 0.1265 µM) was 0.609, the relative viability (NCI-H1650; first compound 0.4 µM) was 0.735 and the relative viability (NCI-H1650; first compound 1.265 µM) was 0.126. The relative viability (NCI-H1650; first compound 4 µM) was 0.141, the relative viability (NCI-H1755; first compound 0.04 µM) was 0.899 and the relative viability (NCI-H1755; first compound 0.1265 µM) was 0.854. It also gave a relative viability (NCI-H1755; first compound 0.4 µM) of 0.901, a relative viability (NCI-H1755; first compound 1.265 µM) of 0.67 and a relative viability (NCI-H1755; first compound 4 µM) of 0.608.
